Reference: patent US20050112573A1, “Method of detecting toxic substance” (priority 2001, published 2005)

System: yeast genes (level of expressed mRNA)
Assay: DNA chip analysis of expressed mRNA of yeast genes after 2 h culture with a toxic chemical substance
Format: cell-based, Saccharomyces cerevisiae S288C
Method in brief: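 S. cerevisiae S288C in YPD at 25 °C was exposed at log phase for 2 h to a growth-inhibiting, non-lethal concentration of the chemical. Poly(A) mRNA was reverse-transcribed with Cy3- or Cy5-dUTP and hybridized to a whole-genome yeast DNA chip (65 °C, >12 h). Values are fluorescence ratios versus untreated cells.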

In the case of Na2As [(1)], the “The level of expressed mRNA in the presence of chemical substance/” value (yeast gene YKL086W, ratio to control without chemical) is reported as 1.0, the “The level of expressed mRNA in the presence of chemical substance/The level of expressed mRNA in the absence of chemical substance” value (yeast gene YKL096W) is reported as 1.4 and the “The level of expressed mRNA in the presence of chemical substance/The level of expressed mRNA in the absence of chemical substance” value (yeast gene YKL139W) is reported as 0.9. The “The level of expressed mRNA in the presence of chemical substance/” value (yeast gene YKL151C, ratio to control without chemical substance, 2 h culture) was 1.2, the “The level of expressed mRNA in the presence of chemical substance/” value (yeast gene YKL153W, ratio to control without chemical substance, 2 h culture) was 1.1 and the “The level of expressed mRNA in the presence of chemical substance/The level of expressed mRNA in the absence of chemical substance” value (yeast gene YKL165C) was 0.5. The “The level of expressed mRNA in the presence of chemical substance/The level of expressed mRNA in the absence of chemical substance” value (yeast gene YKL193C) was 1.3, the “The level of expressed mRNA in the presence of chemical substance/” value (yeast gene YKL195W, ratio to control without chemical substance, 2 h culture) was 0.8 and the “The level of expressed mRNA in the presence of chemical substance/in the absence of chemical substance” value (yeast gene YKR009C) was 1.0. The “The level of expressed mRNA in the presence of chemical substance/The level of expressed mRNA in the absence of chemical substance” value (yeast gene YKR014C) was 1.1, the “The level of expressed mRNA in the presence of chemical substance/” value (yeast gene YKR091W, ratio to control without chemical) was 1.5 and the “The level of expressed mRNA in the presence of chemical substance/” value (yeast gene YLR054C, ratio to control without chemical substance, 2 h culture) was 2.0. The “The level of expressed mRNA in the presence of chemical substance/The level of expressed mRNA in the absence of chemical substance” value (yeast gene YLR120C) was 1.2, the “The level of expressed mRNA in the presence of chemical substance/The level of expressed mRNA in the absence of chemical substance” value (yeast gene YLR136C) was 1.3 and the “The level of expressed mRNA in the presence of chemical substance/” value (yeast gene YLR149C, ratio to control without chemical substance, 2 h culture) was 1.4. The “The level of expressed mRNA in the presence of chemical substance/” value (yeast gene YLR152C, ratio to control without chemical substance, 2 h culture) was 0.7, the “The level of expressed mRNA in the presence of chemical substance/The level of expressed mRNA in the absence of chemical substance” value (yeast gene YLR178C) was 1.7 and the “The level of expressed mRNA in the presence of chemical substance/” value (yeast gene YLR194C, ratio to control without chemical) was 2.1. The “The level of expressed mRNA in the presence of chemical substance/The level of expressed mRNA in the absence of chemical substance” value (yeast gene YLR250W) was 1.5, the “The level of expressed mRNA in the presence of chemical substance/” value (yeast gene YLR324W, ratio to control without chemical substance, 2 h culture) was 0.7 and the “The level of expressed mRNA in the presence of chemical substance/The level of expressed mRNA in the absence of chemical substance” value (yeast gene YLR327C) was 5.5. For the same substance, the “The level of expressed mRNA in the presence of chemical substance/” value (yeast gene YLR350W, ratio to control without chemical substance, 2 h culture) was 1.2, the “The level of expressed mRNA in the presence of chemical substance/in the absence of chemical substance” value (yeast gene YLR351C) was 1.0 and the “The level of expressed mRNA in the presence of chemical substance/The level of expressed mRNA in the absence of chemical substance” value (yeast gene YLR356W) was 1.0. For the same substance, the “The level of expressed mRNA in the presence of chemical substance/The level of expressed mRNA in the absence of chemical substance” value (yeast gene YLR362W) was 1.1, the “The level of expressed mRNA in the presence of chemical substance/in the absence of chemical substance” value (yeast gene YLR375W) was 0.9 and the “The level of expressed mRNA in the presence of chemical substance/” value (yeast gene YLR387C, ratio to control without chemical substance, 2 h culture) was 0.9. For the same substance, the “The level of expressed mRNA in the presence of chemical substance/The level of expressed mRNA in the absence of chemical substance” value (yeast gene YLR429W) was 0.7, the “The level of expressed mRNA in the presence of chemical substance/” value (yeast gene YLR460C, ratio to control without chemical substance, 2 h culture) was 2.1 and the “The level of expressed mRNA in the presence of chemical substance/” value (yeast gene YML117W, ratio to control without chemical substance, 2 h culture) was 0.9. For the same substance, the “The level of expressed mRNA in the presence of chemical substance/The level of expressed mRNA in the absence of chemical substance” value (yeast gene YMR004W) was 0.9, the “The level of expressed mRNA in the presence of chemical substance/” value (yeast gene YMR009W, ratio to control without chemical substance, 2 h culture) was 2.3 and the “The level of expressed mRNA in the presence of chemical substance/” value (yeast gene YMR067C, ratio to control without chemical substance, 2 h culture) was 0.9. The “The level of expressed mRNA in the presence of chemical substance/” value (yeast gene YMR090W, ratio to control without chemical substance, 2 h culture) was 6.9, the “The level of expressed mRNA in the presence of chemical substance/The level of expressed mRNA in the absence of chemical substance” value (yeast gene YMR094W) was 1.0 and the “The level of expressed mRNA in the presence of chemical substance/” value (yeast gene YMR095C, ratio to control without chemical) was 1.1. For the same substance, the “The level of expressed mRNA in the presence of chemical substance/” value (yeast gene YMR097C, ratio to control without chemical substance, 2 h culture) was 1.5, the “The level of expressed mRNA in the presence of chemical substance/” value (yeast gene YMR102C, ratio to control without chemical substance, 2 h culture) was 1.0 and the “The level of expressed mRNA in the presence of chemical substance/The level of expressed mRNA in the absence of chemical substance” value (yeast gene YMR104C) was 1.9. For the same substance, the “The level of expressed mRNA in the presence of chemical substance/” value (yeast gene YMR107W, ratio to control without chemical substance, 2 h culture) was 5.0, the “The level of expressed mRNA in the presence of chemical substance/” value (yeast gene YMR180C, ratio to control without chemical substance, 2 h culture) was 1.2 and the “The level of expressed mRNA in the presence of chemical substance/” value (yeast gene YMR184W, ratio to control without chemical substance, 2 h culture) was 1.3. For the same substance, the “The level of expressed mRNA in the presence of chemical substance/” value (yeast gene YMR191W, ratio to control without chemical substance, 2 h culture) was 1.3, the “The level of expressed mRNA in the presence of chemical substance/The level of expressed mRNA in the absence of chemical substance” value (yeast gene YMR219W) was 0.7 and the “The level of expressed mRNA in the presence of chemical substance/The level of expressed mRNA in the absence of chemical substance” value (yeast gene YMR226C) was 1.1. The “The level of expressed mRNA in the presence of chemical substance/in the absence of chemical substance” value (yeast gene YMR267W) was 0.8, the “The level of expressed mRNA in the presence of chemical substance/The level of expressed mRNA in the absence of chemical substance” value (yeast gene YMR275C) was 0.7 and the “The level of expressed mRNA in the presence of chemical substance/The level of expressed mRNA in the absence of chemical substance” value (yeast gene YMR276W) was 0.6. The “The level of expressed mRNA in the presence of chemical substance/in the absence of chemical substance” value (yeast gene YMR278W) was 0.7, the “The level of expressed mRNA in the presence of chemical substance/in the absence of chemical substance” value (yeast gene YMR293C) was 0.9 and the “The level of expressed mRNA in the presence of chemical substance/” value (yeast gene YMR295C, ratio to control without chemical substance, 2 h culture) was 1.7. For the same substance, the “The level of expressed mRNA in the presence of chemical substance/” value (yeast gene YMR316W, ratio to control without chemical substance, 2 h culture) was 3.2, the “The level of expressed mRNA in the presence of chemical substance/The level of expressed mRNA in the absence of chemical substance” value (yeast gene YNL006W) was 1.1 and the “The level of expressed mRNA in the presence of chemical substance/The level of expressed mRNA in the absence of chemical substance” value (yeast gene YNL007C) was 0.7. The “The level of expressed mRNA in the presence of chemical substance/” value (yeast gene YNL044W, ratio to control without chemical substance, 2 h culture) was 1.3.
